A short description of data set [1]: Ocular pharmacokinetic test: celecoxib content in eye tissues after ocular administration. The format is in vivo, New Zealand rabbit. Conditions: after ocular administration of eye drops. The text has this:
To compare the content of the active compound celecoxib in each eye tissue to screen out lead compound with excellent pharmacokinetic characteristics after the ocular administration of SZY1907-P3, SZY1907-P4 and celecoxib in New Zealand rabbits.
Grouping: 9 male New Zealand rabbits were randomly divided into 3 groups of 3 animals each.
Dosage: According to the formulation of Guangzhou Zhongshan Ophthalmic Center, the concentration of SZY1907-P3/P4 in eye drops is 0.1%. Thus, the dose of SZY1907-P3/P4 was set to 0.100 mg/New Zealand rabbit and the dose of celecoxib was 0.075 mg/New Zealand rabbit (close to the equimolar dose of SZY1907-P3/P4).
The administration method was consistent with the clinical method, which was, ophthalmic administration, and the rabbit left and right eyes were simultaneously administrated.
0.1% of SZY1907-P3 eye drops: 0.01000 g of SZY1907-P3 was weighed, 0.00500 g of Tween-80 and 0.04500 g of polyoxyethylene 40 hydrogenated castor oil were added, and stirred with a glass rod until the solution was in an emulsion shape. 5 mL of distilled water was added slowly while stirring, dissolved for later use. 0.09000 g of sodium chloride and 0.00125 g of 80% benzalkonium chloride were weighed, 2 mL of distilled water was added, and stirred to dissolve. The two solutions was combined and adjusted the volume to 10 mL. […]

Data set [2] can be described thus: Stability (purity) of the prototype at different pH values. The format is physicochemical.
Data set [3] can be described thus: Solubility of SZY1907-P3 prototype and salt forms at different pH values.
The conditions of data set [4]: Table 1; cited from earlier work.
The conditions of data set [5]: pH 7.

As a reminder, the Solubility is how much of the substance goes into solution per volume.

≈ marks a conversion by molar mass, not a printed value. Read-outs that look alike come from different tables or passages of the source.

As to `Cc1ccc(-c2cc(C(F)(F)F)nn2-c2ccc(S(N)(=O)=O)cc2)cc1` [Celecoxib], the “Drug concentration / distribution in ocular tissues (cornea, conjunctiva and aqueous humor), in words” value in data set [1] is listed as “relatively low”.

As to `Cc1ccc(-c2cc(C(F)(F)F)nn2-c2ccc(S(=O)(=O)NC(=O)CCN)cc2)cc1` [SZY1907-P3], the “Stability under storage conditions, in words” value in data set [2] is “relatively stable under storage conditions”. In data set [3], the “Solubility, in words” value was “proper solubility” and the “pH dependence of solubility, in words” value was “a certain pH dependence”.

`CNCCC(=O)NS(=O)(=O)c1ccc(-n2nc(C(F)(F)F)cc2-c2ccc(C)cc2)cc1` [SZY1907-P4]: the “Drug concentration / distribution in ocular tissues (cornea, conjunctiva and aqueous humor), in words” value in data set [1] is given as “almost not detected”.

Turning to `NCCCCC(N)C(=O)O` (centres unmarked) [lysinate], the Pka in data set [4] is 2.16. The Solubility turned out to be 40470 µg/mL in data set [3] (pH value 1); 80 µg/mL in data set [3] (pH value 2); 100 µg/mL in data set [3] (pH value 4); 90 µg/mL in data set [3] (pH value 6); 90 µg/mL in data set [3] (pH value 7); 100 µg/mL in data set [3] (pH value 8).

In the case of `Cc1ccc(-c2cc(C(F)(F)F)nn2-c2ccc(S(=O)(=O)NC(=O)CCN)cc2)cc1` [prototype], the “Purity at Day 0” value in data set [2] (pH value 5.5-6.0) is on record as 99.85%; in data set [2] (pH value 6.5-7.0) it was 99.88%; in data set [2] (pH value 7.0-7.5), 99.81%. In addition, the figures for the “Purity at Day 1” value in data set [2] (pH value 5.5-6.0), in data set [2] (pH value 6.5-7.0) and in data set [2] (pH value 7.0-7.5) were 99.32%, 100.00% and 100.00%, respectively. The “Purity at Day 2” value in data set [2] (pH value 5.5-6.0) is on record as 99.67%; in data set [2] (pH value 6.5-7.0) it was 99.74%; in data set [2] (pH value 7.0-7.5) it was 99.70%. Further, the “Purity at Day 5” value in data set [2] (pH value 5.5-6.0) is 99.63%; in data set [2] (pH value 6.5-7.0), 99.87%; in data set [2] (pH value 7.0-7.5), 99.84%. In addition, the Solubility was 100 µg/mL (≈ 221 µM) in “physchem” (aqueous buffer); 83500 µg/mL (≈ 184000 µM) in the data set “physchem” (pH 1, simulated gastric fluid); 1020 µg/mL (≈ 2250 µM) in the data set “physchem” (pH 2, simulated gastric fluid); 80 µg/mL (≈ 177 µM) in “physchem” (pH 4, aqueous buffer); 80 µg/mL (≈ 177 µM) in the data set “physchem” (pH 6, aqueous buffer); 90 µg/mL (≈ 199 µM) in the data set “physchem” (pH 7, aqueous buffer). Besides, the Solubility was 80 µg/mL (≈ 177 µM) in the data set “physchem” (pH 8, aqueous buffer); 90 µg/mL in data set [3] (Table 2, pH value 6.5-7.0); 100 µg/mL in data set [3] (Table 2, pH value 7.0-7.5).

Compound fumarate showed a Solubility in data set [5] of 90 µg/mL. Also, the Pka in data set [4] is given as 3.03.

For phosphate, the Solubility was 42900 µg/mL in data set [3] (pH value 1); 25720 µg/mL in data set [3] (pH value 2); 1280 µg/mL in data set [3] (pH value 4); 470 µg/mL in data set [3] (pH value 6); 90 µg/mL in data set [3] (pH value 7); 100 µg/mL in data set [3] (pH value 8).
